From the NIST ThermoML archive (doi:10.1021/je030106k) come the findings set out here.

The conditions of the data set: Liquid.

± gives the expanded uncertainty stated by the source.

In the case of `CC(C)C` [2-methylpropane], the “vapor or sublimation pressure” value amounted to 157.2 ± 1.6 kPa (273.15 K), 221.8 ± 1.8 kPa (283.15 K), 303.4 ± 2.1 kPa (293.15 K) and 405.2 ± 2.6 kPa (303.15 K).

Turning to `CCC` [propane], the “vapor or sublimation pressure” value by setting is: (273.15 K) 475 ± 1.8 kPa; (283.15 K) 637.8 ± 2.2 kPa; (293.15 K) 836 ± 2.6 kPa; (303.15 K) 1078.4 ± 3.2 kPa.
